Paper PMC3700342 (Biochemical pharmacology, 2013)
≈ marks a conversion by molar mass, not a printed value.

Assays:
[1] = target: T1, M. smegmatis alanine racemase (Mycolicibacterium smegmatis, UniProt P94967); experiment: Alanine racemase assay; assay type: biochemical
T1 sequence (P94967 1-389): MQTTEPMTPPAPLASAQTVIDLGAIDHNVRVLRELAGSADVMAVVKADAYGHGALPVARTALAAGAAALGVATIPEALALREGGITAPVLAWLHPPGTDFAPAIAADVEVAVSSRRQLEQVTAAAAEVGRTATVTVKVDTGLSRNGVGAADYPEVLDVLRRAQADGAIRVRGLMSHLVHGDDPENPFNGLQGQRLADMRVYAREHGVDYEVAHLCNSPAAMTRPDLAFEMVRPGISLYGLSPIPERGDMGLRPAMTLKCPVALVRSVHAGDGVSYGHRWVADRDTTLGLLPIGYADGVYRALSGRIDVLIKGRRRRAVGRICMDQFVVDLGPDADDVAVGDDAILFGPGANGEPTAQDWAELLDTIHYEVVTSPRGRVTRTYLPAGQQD

M. tuberculosis = experiment: Microtiter broth dilution MIC, M. tuberculosis; assay type: cell-based; settings: Mycobacterium tuberculosis, read-out: Mtb MIC
M. smegmatis = experiment: Microtiter broth dilution MIC, M. smegmatis; assay type: cell-based
M. tuberculosis H37Rv = experiment: Microtiter broth dilution MIC, M. tuberculosis H37Rv; assay type: cell-based; settings: Mycobacterium tuberculosis
[2] = system: M. smegmatis and M. tuberculosis growth; experiment: MIC in the presence of 5 mM D-alanine in the growth medium; assay type: cell-based; settings: data not shown
[3] = target: M. tuberculosis alanine racemase (Mycobacterium tuberculosis, UniProt P9WQA9); assay type: biochemical
Chain of M. tuberculosis alanine racemase (P9WQA9 whole entry): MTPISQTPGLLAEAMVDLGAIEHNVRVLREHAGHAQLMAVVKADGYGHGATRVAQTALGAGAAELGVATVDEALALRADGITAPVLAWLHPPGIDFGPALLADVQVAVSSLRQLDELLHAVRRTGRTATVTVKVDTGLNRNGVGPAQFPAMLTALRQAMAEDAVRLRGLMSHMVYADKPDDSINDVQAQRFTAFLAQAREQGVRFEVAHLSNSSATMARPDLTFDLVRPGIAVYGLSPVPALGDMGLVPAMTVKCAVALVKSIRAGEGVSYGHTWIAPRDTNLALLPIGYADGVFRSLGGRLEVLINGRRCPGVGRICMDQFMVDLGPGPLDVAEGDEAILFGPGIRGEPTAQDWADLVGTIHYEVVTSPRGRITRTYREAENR
C[C@H](N)C(=O)O = experiment: purified protein, by the assay type
Alanine racemase assay = substrate: C[C@H](N)C(=O)O; experiment: Alanine racemase assay; assay type: biochemical, M. smegmatis; settings: other: L-alanine to D-alanine, recombinant enzyme

N[C@@H]1CON=C1O [CS, cycloserine] was tested, and the IC50 [1] was > 100 µM, the MIC (M. tuberculosis) was 6.25 µg/mL (≈ 61.2 µM) and the “MSM MIC” value (M. smegmatis; 2 days, Mueller Hinton broth) was 25 µg/mL. The MIC (M. smegmatis; Mycolicibacterium smegmatis, 48 h, read-out: MSM MIC) was 25 µg/mL (≈ 245 µM), the MIC (M. tuberculosis H37Rv) was 6.25 µg/mL (≈ 61.2 µM) and the “increase in MIC” value [2] was 3 fold.

Molecule C[C@H](N)C(=O)O [L-alanine] has a Kcat [3] of 200 and a Kcat ([1]; L-alanine to D-alanine, recombinant enzyme) of 4300.

For “M. tuberculosis alanine racemase (Mycobacterium tuberculosis H37Rv)”, the Km (C[C@H](N)C(=O)O) was 4 mM and the Vmax (C[C@H](N)C(=O)O) was 0.04 mM/min.

B1: M. smegmatis alanine racemase (Mycolicibacterium smegmatis) (protein)
chain: MQTTEPMTPPAPLASAQTVIDLGAIDHNVRVLRELAGSADVMAVVKADAYGHGALPVARTALAAGAAALGVATIPEALALREGGITAPVLAWLHPPGTDFAPAIAADVEVAVSSRRQLEQVTAAAAEVGRTATVTVKVDTGLSRNGVGAADYPEVLDVLRRAQADGAIRVRGLMSHLVHGDDPENPFNGLQGQRLADMRVYAREHGVDYEVAHLCNSPAAMTRPDLAFEMVRPGISLYGLSPIPERGDMGLRPAMTLKCPVALVRSVHAGDGVSYGHRWVADRDTTLGLLPIGYADGVYRALSGRIDVLIKGRRRRAVGRICMDQFVVDLGPDADDVAVGDDAILFGPGANGEPTAQDWAELLDTIHYEVVTSPRGRVTRTYLPAGQQD
Work on B1 yielded a Km (Alanine racemase assay) of 8.5 mM and a Vmax (Alanine racemase assay) of 0.3 mM/min.
